Where “and” joins values, the source holds several entries; their conditions need not be identical. Identical values can stand only once. Inconclusive results and toxic doses are left out. How the source made its calls: active means survival T/C of 150% or more; inactive means T/C below 125% in these data.
System: CD2F1 mice, L1210 leukemia ip, survival T/C
Assay: NCI In Vivo Anticancer Drug Screen. Data for tumor model L1210 Leukemia (intraperitoneal) in CD2F1 (CDF1) mice
Details: higher = longer survival
How it was run: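 Tumor-bearing mice (transplanted tumor) were split into treated and vehicle control groups, and the measured endpoint of each treated group was divided by that of its vehicle controls.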

[1] = endpoint: mean survival time, dose: 50.0 mg/kg/injection, schedule: Q01DX009 (ip), vehicle: saline with Tween-80
[2] = endpoint: mean survival time, dose: 100.0 mg/kg/injection, schedule: Q01DX009 (ip), vehicle: saline with Tween-80
[3] = endpoint: mean survival time, dose: 200.0 mg/kg/injection, schedule: Q01DX009 (ip), vehicle: saline with Tween-80
[4] = endpoint: mean survival time, dose: 6.25 mg/kg/injection, schedule: Q01DX009 (ip), vehicle: saline
[5] = endpoint: mean survival time, dose: 100.0 mg/kg/injection, schedule: Q04DX003 (ip), vehicle: saline with Tween-80
[6] = endpoint: mean survival time, dose: 200.0 mg/kg/injection, schedule: Q04DX003 (ip), vehicle: saline with Tween-80
[7] = endpoint: mean survival time, dose: 400.0 mg/kg/injection, schedule: Q04DX003 (ip), vehicle: saline with Tween-80

Measured: T/C

O=c1cc[nH]cc1[N+](=O)[O-]
inactive: [1] 101 % of control | [2] 101 % of control | endpoint: mean survival time, dose: 100.0 mg/kg/injection, schedule: Q04DX003 (ip), vehicle: saline sonified 97 % of control | [3] 100 % of control | endpoint: mean survival time, dose: 200.0 mg/kg/injection, schedule: Q04DX003 (ip), vehicle: saline sonified 95 % of control

COc1nc(NC2OCC(O)C(O)C2O)c(Br)c(=O)n1C (stereo not given)
inactive: endpoint: median survival time, dose: 12.5 mg/kg/injection, schedule: Q01DX005 (ip), vehicle: saline with Tween-80 100 % of control | endpoint: median survival time, dose: 25.0 mg/kg/injection, schedule: Q01DX005 (ip), vehicle: saline with Tween-80 101 % of control | endpoint: median survival time, dose: 50.0 mg/kg/injection, schedule: Q01DX005 (ip), vehicle: saline with Tween-80 101 % of control | endpoint: median survival time, dose: 100.0 mg/kg/injection, schedule: Q01DX005 (ip), vehicle: saline with Tween-80 101 % of control | endpoint: median survival time, dose: 200.0 mg/kg/injection, schedule: Q01DX005 (ip), vehicle: saline with Tween-80 101 % of control

CNC(=O)OCc1c(COC(=O)NC)c(C)n(-c2ccccc2)c1C
inactive: endpoint: mean survival time, dose: 6.25 mg/kg/injection, schedule: Q01DX009 (ip), vehicle: Klucel (hydroxypropylcellulose) (HPC) 109 % of control | endpoint: mean survival time, dose: 12.5 mg/kg/injection, schedule: Q01DX009 (ip), vehicle: Klucel (hydroxypropylcellulose) (HPC) 106 % of control | endpoint: mean survival time, dose: 25.0 mg/kg/injection, schedule: Q01DX009 (ip), vehicle: Klucel (hydroxypropylcellulose) (HPC) 104 % of control

Nc1ncnc2c1ncn2C1OC(COCc2ccccc2)C(OCc2ccccc2)C1OCc1ccccc1 (stereo not given)
inactive: endpoint: mean survival time, dose: 20.0 mg/kg/injection, schedule: Q01DX Z (ip), vehicle: saline 90 % of control | endpoint: mean survival time, dose: 40.0 mg/kg/injection, schedule: Q01DX Z (ip), vehicle: saline 90 % of control | endpoint: mean survival time, dose: 80.0 mg/kg/injection, schedule: Q01DX Z (ip), vehicle: saline 90 % of control and 93 % of control | endpoint: mean survival time, dose: 160.0 mg/kg/injection, schedule: Q01DX Z (ip), vehicle: saline 91 % of control and 96 % of control

O=C(c1ccccc1)c1ccsc1C(=O)O
inactive: endpoint: mean survival time, dose: 25.0 mg/kg/injection, schedule: Q04DX002 (ip), vehicle: saline with Tween-80 96 % of control | endpoint: mean survival time, dose: 50.0 mg/kg/injection, schedule: Q04DX002 (ip), vehicle: saline with Tween-80 96 % of control

CC(=O)c1ccc[n+](CCc2c[nH]c3ccccc23)c1
inactive: endpoint: mean survival time, dose: 12.5 mg/kg/injection, schedule: Q01DX009 (ip), vehicle: saline sonified 103 % of control | endpoint: mean survival time, dose: 12.5 mg/kg/injection, schedule: Q04DX003 (ip), vehicle: saline with Tween-80 98 % of control | endpoint: mean survival time, dose: 25.0 mg/kg/injection, schedule: Q01DX009 (ip), vehicle: saline sonified 100 % of control | endpoint: mean survival time, dose: 25.0 mg/kg/injection, schedule: Q04DX003 (ip), vehicle: saline with Tween-80 104 % of control | endpoint: mean survival time, dose: 50.0 mg/kg/injection, schedule: Q01DX009 (ip), vehicle: saline sonified 103 % of control | endpoint: mean survival time, dose: 50.0 mg/kg/injection, schedule: Q04DX003 (ip), vehicle: saline with Tween-80 103 % of control

COc1ccc(Nc2ccnc3cc(Cl)ccc23)cc1CN(CCCl)CCCl
inactive: [4] 117 % of control | endpoint: mean survival time, dose: 25.0 mg/kg/injection, schedule: Q01DX009 (ip), vehicle: saline 88 % of control

O=S(O)C(=Nc1ccccc1)Nc1ccccc1
inactive: [2] 94 % of control | [3] 106 % of control

CN(C)N=Nc1ccc(C(N)=O)cc1C(N)=O
inactive: endpoint: mean survival time, dose: 18.75 mg/kg/injection, schedule: Q01DX009 (ip), vehicle: Klucel (hydroxypropylcellulose) (HPC) 115 % of control and 104 % of control | endpoint: mean survival time, dose: 37.5 mg/kg/injection, schedule: Q01DX009 (ip), vehicle: Klucel (hydroxypropylcellulose) (HPC) 122 % of control and 112 % of control | endpoint: mean survival time, dose: 75.0 mg/kg/injection, schedule: Q01DX009 (ip), vehicle: Klucel (hydroxypropylcellulose) (HPC) 123 % of control and 124 % of control

O=C(O)CCC(=O)NO
inactive: endpoint: mean survival time, dose: 100.0 mg/kg/injection, schedule: Q04DX003 (ip), vehicle: saline 109 % of control | endpoint: mean survival time, dose: 200.0 mg/kg/injection, schedule: Q04DX003 (ip), vehicle: saline 109 % of control | endpoint: mean survival time, dose: 400.0 mg/kg/injection, schedule: Q04DX003 (ip), vehicle: saline 109 % of control

CC(=O)/C(=C\c1ccc(Cl)c(Cl)c1)C(=O)CCN(C)C
inactive: endpoint: median survival time, dose: 12.5 mg/kg/injection, schedule: Q01DX009 (ip), vehicle: saline 113 % of control and 98 % of control | endpoint: median survival time, dose: 25.0 mg/kg/injection, schedule: Q01DX009 (ip), vehicle: saline 95 % of control and 104 % of control and 109 % of control | endpoint: median survival time, dose: 50.0 mg/kg/injection, schedule: Q01DX009 (ip), vehicle: saline 113 % of control and 115 % of control and 110 % of control | endpoint: median survival time, dose: 100.0 mg/kg/injection, schedule: Q01DX009 (ip), vehicle: saline 97 % of control and 105 % of control

CCOC1(C)CCC/C(=N/Nc2ccc([N+](=O)[O-])cc2[N+](=O)[O-])C1 (stereo not given)
inactive: endpoint: mean survival time, dose: 100.0 mg/kg/injection, schedule: Q04DX003 (ip), vehicle: Klucel (hydroxypropylcellulose) (HPC) 97 % of control | endpoint: mean survival time, dose: 200.0 mg/kg/injection, schedule: Q04DX003 (ip), vehicle: Klucel (hydroxypropylcellulose) (HPC) 100 % of control | endpoint: mean survival time, dose: 400.0 mg/kg/injection, schedule: Q04DX003 (ip), vehicle: Klucel (hydroxypropylcellulose) (HPC) 100 % of control

CCCCCCCCC1SC1CCCCCCCC(=O)OCCN(C)C(=O)CCCCCCCC1SC1CCCCCCCC (stereo not given)
inactive: endpoint: mean survival time, dose: 100.0 mg/kg/injection, schedule: Q04DX003 (ip), vehicle: other 100 % of control | endpoint: mean survival time, dose: 200.0 mg/kg/injection, schedule: Q04DX003 (ip), vehicle: other 92 % of control | endpoint: mean survival time, dose: 400.0 mg/kg/injection, schedule: Q04DX003 (ip), vehicle: other 90 % of control

CN(C)S(=O)(=O)Oc1ccccc1N
inactive: [5] 99 % of control | [6] 87 % of control | [7] 94 % of control

C1=CC2CC2C1 (stereo not given)
inactive: endpoint: median survival time, dose: 50.0 mg/kg/injection, schedule: Q04DX002 (ip), vehicle: saline with Tween-80 88 % of control | endpoint: median survival time, dose: 100.0 mg/kg/injection, schedule: Q04DX002 (ip), vehicle: saline with Tween-80 88 % of control | endpoint: median survival time, dose: 200.0 mg/kg/injection, schedule: Q04DX002 (ip), vehicle: saline with Tween-80 88 % of control | endpoint: median survival time, dose: 400.0 mg/kg/injection, schedule: Q04DX002 (ip), vehicle: saline with Tween-80 88 % of control

Cn1cnc2c(SCc3ccccc3)ncnc21
inactive: [5] 104 % of control | endpoint: mean survival time, dose: 132.0 mg/kg/injection, schedule: Q04DX003 (ip), vehicle: saline with Tween-80 118 % of control | [6] 102 % of control | endpoint: mean survival time, dose: 300.0 mg/kg/injection, schedule: Q04DX003 (ip), vehicle: saline with Tween-80 119 % of control

O=C(O)C1CC1c1ccccc1 (stereo not given)
inactive: [5] 95 % of control | [6] 103 % of control | [7] 100 % of control

CCOC(=O)c1cccc2ncccc12
inactive: endpoint: mean survival time, dose: 75.0 mg/kg/injection, schedule: Q04DX003 (ip), vehicle: saline 101 % of control | endpoint: mean survival time, dose: 150.0 mg/kg/injection, schedule: Q04DX003 (ip), vehicle: saline 93 % of control | endpoint: mean survival time, dose: 300.0 mg/kg/injection, schedule: Q04DX003 (ip), vehicle: saline 97 % of control

CC(=O)/C(N=Nc1ccc(S(=O)(=O)c2ccc(N=N/C(C(C)=O)=C(/C)O)cc2)cc1)=C(\C)O
inactive: [2] 86 % of control | [3] 86 % of control | endpoint: mean survival time, dose: 400.0 mg/kg/injection, schedule: Q01DX009 (ip), vehicle: saline with Tween-80 102 % of control

CC(SC(=S)N(C)C)C(=O)O (stereo not given)
inactive: [5] 96 % of control | [6] 101 % of control | [7] 101 % of control

CCCCNCCCNCCCNC(=O)c1csc(-c2csc(CCNC(=O)C(NC(=O)C(C)C(O)C(C)NC(=O)C(NC(=O)c3nc(C(CC(N)=O)NCC(N)C(N)=O)nc(N)c3C)C(OC3OC(CO)C(O)C(O)C3OC3OC(CO)C(O)C(OC(N)=O)C3O)c3cnc[nH]3)C(C)O)n2)n1 (stereo not given)
inactive: endpoint: mean survival time, dose: 2.5 mg/kg/injection, schedule: Q01DX009 (ip), vehicle: saline 101 % of control | endpoint: mean survival time, dose: 5.0 mg/kg/injection, schedule: Q01DX009 (ip), vehicle: saline 101 % of control | endpoint: mean survival time, dose: 10.0 mg/kg/injection, schedule: Q01DX009 (ip), vehicle: saline 114 % of control | endpoint: mean survival time, dose: 20.0 mg/kg/injection, schedule: Q01DX009 (ip), vehicle: saline 104 % of control | endpoint: mean survival time, dose: 40.0 mg/kg/injection, schedule: Q01DX009 (ip), vehicle: saline 104 % of control

CC1(C)C2CCC1(C(=O)O)CC2
inactive: [1] 100 % of control | [2] 100 % of control | [5] 92 % of control | [3] 97 % of control | [6] 95 % of control

COc1cc2ccc3c(c2cc1OC)C(=O)CNC3C (stereo not given)
inactive: endpoint: mean survival time, dose: 3.13 mg/kg/injection, schedule: Q01DX009 (ip), vehicle: saline 105 % of control | [4] 98 % of control | endpoint: mean survival time, dose: 12.5 mg/kg/injection, schedule: Q01DX009 (ip), vehicle: saline 104 % of control

CCNC(=S)NN
inactive: endpoint: mean survival time, dose: 12.5 mg/kg/injection, schedule: Q01DX009 (ip), vehicle: saline with Tween-80 100 % of control

N#CC(CC(=O)c1ccc(-c2ccccc2)cc1)c1ccccc1 (stereo not given)
inactive: [5] 91 % of control | [6] 91 % of control | [7] 95 % of control

Reference: PubChem BioAssay AID256 (DTP/NCI, 2004)
